Read-outs that look alike come from different tables or passages of the source.

Assay [1] addresses HCV NS3/4A protease genotype 1b (Hepatitis C virus genotype 1b, UniProt P26663). Put plainly: HCV NS3/4A protease time-resolved fluorescence (TRF) assay, Ki against genotype 1b. Format: biochemical. The settings on record: IC50 [gt-1b], NS3/4A protease TRF assay, genotype 1b enzyme 0.2 nM. An outline of the steps:
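NS3/4A enzyme was preincubated 30 min with inhibitor in 50 mM HEPES pH 7.5, 150 mM NaCl, 15% glycerol, 0.15% Triton X-100, 10 mM DTT, 0.1% PEG 8000; 25 nM europium TRF peptide substrate added, 2.5 h at room temperature. Enzyme: 0.2 nM (1b), 0.4 nM (A156T), 0.025 nM (3a). Ki from IC50 via Cheng-Prusoff.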

In another assay the test system is HCV genotype 1b replicon. Put plainly: HCV replicon assay, genotype 1b replicon EC50. The conditions noted are these: Hepatitis C virus, HCV replicon, genotype 1b, read-out: EC50 [gt-1b]. Format: cell-based, Hepatitis C virus. An outline of the steps: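 Assay format: compound titration on stable replicon cells, no G418 during treatment, 24 to 48 hours. Lysates were assayed for replicon RNA (hybridization/protection or TaqMan) or luciferase; EC50 fitted to four parameters against DMSO.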

`Cc1ccc2nc(C(F)(F)F)c3c(c2c1)CC[C@]1(C[C@H]2C(=O)N[C@]4(C(=O)NS(=O)(=O)C5(C)CC5)C[C@H]4/C=C\CCCCC[C@H](NC(=O)OCCN4CCCCC4)C(=O)N2C1)O3` [Example 417, 2-(piperidin-1-yl)ethyl [(2R,6S,12Z,13aS,14aR,16aS)-9′-methyl-14a-{[(1-methylcyclopropyl)sulfonyl]carbamoyl}-5,16-dioxo-5′-(trifluoromethyl)-1,1′,2′,5,6,7,8,9,10,11,13a,14,14a,15,16,16a-hexadecahydrospiro[cyclopropa[e]pyrrolo[1,2-a][1,4]diazacyclopentadecine-2,3′-pyrano[2,3-c]quinolin]-6-yl]carbamate] had an IC50 in assay [1] of 0.094 nM. In the assay with HCV genotype 1b replicon, the EC50 came to 45.3 nM.
The matching figures for `Cc1nc2ccc(OCCN3CCOCC3)cc2c2c1O[C@]1(CC2)C[C@H]2C(=O)N[C@]3(C(=O)NS(=O)(=O)C4(C)CC4)C[C@H]3/C=C\CCCCC[C@H](NC(=O)OC(C)(C)C)C(=O)N2C1` [Example 418, tert-butyl {(2R,6S,12Z,13aS,14aR,16aS)-5′-methyl-14a-{[(1-methylcyclopropyl)sulfonyl]carbamoyl}-9′-[2-(morpholin-4-yl)ethoxy]-5,16-dioxo-1,1′,2′,5,6,7,8,9,10,11,13a,14,14a,15,16,16a-hexadecahydrospiro[cyclopropa[e]pyrrolo[1,2-a][1,4]diazacyclopentadecine-2,3′-pyrano[2,3-c]quinolin]-6-yl}carbamate]: 0.008 nM and 6.24 nM.
In the case of `COc1ccc2nc(C(C)C)c3c(c2c1)[C@H](F)C[C@]1(C[C@H]2C(=O)N[C@]4(C(=O)NS(=O)(=O)C5(C)CC5)C[C@H]4/C=C\CCCCC[C@H](NC(=O)O[C@@H](C)C(C)C)C(=O)N2C1)O3` [Example 419, (2S)-3-methylbutan-2-yl [(1′R,2S,6S,12Z,13aS,14aR,16aS)-1′-fluoro-9′-methoxy-14a-{[(1-methylcyclopropyl)sulfonyl]carbamoyl}-5,16-dioxo-5′-(propan-2-yl)-1,1′,2′,5,6,7,8,9,10,11,13a,14,14a,15,16,16a-hexadecahydrospiro[cyclopropa[e]pyrrolo[1,2-a][1,4]diazacyclopentadecine-2,3′-pyrano[2,3-c]quinolin]-6-yl]carbamate], the 50% inhibitory concentration (IC50) in assay [1] (K+ salt) turned out to be 0.038 nM. In addition, the EC50 with HCV genotype 1b replicon (K+ salt) was 1.75 nM.
Turning to `CC[C@@H](C)OC(=O)N[C@H]1CCCCC/C=C\[C@@H]2C[C@@]2(C(=O)NS(=O)(=O)C2(C)CC2)NC(=O)[C@@H]2C[C@]3(CCc4c(c(C5CC5)nc5ccc(OC)cc45)O3)CN2C1=O` [Example 420, (2R)-butan-2-yl [(2R,6S,12Z,13aS,14aR,16aS)-5′-cyclopropyl-9′-methoxy-14a-{[(1-methylcyclopropyl)sulfonyl]carbamoyl}-5,16-dioxo-1,1′,2′,5,6,7,8,9,10,11,13a,14,14a,15,16,16a-hexadecahydrospiro[cyclopropa[e]pyrrolo[1,2-a][1,4]diazacyclopentadecine-2,3′-pyrano[2,3-c]quinolin]-6-yl]carbamate], in assay [1] (K+ salt), the IC50 was found to be 0.011 nM. Moreover, the concentration giving a half-maximal response (EC50) in the assay with HCV genotype 1b replicon (K+ salt) was 1.25 nM.
Take `CC[C@H](C)OC(=O)N[C@H]1CCCCC/C=C\[C@@H]2C[C@@]2(C(=O)NS(=O)(=O)C2(C)CC2)NC(=O)[C@@H]2C[C@]3(CCc4c(c(C5CC5)nc5ccc(OC)cc45)O3)CN2C1=O` [Example 421, (2S)-butan-2-yl [(2R,6S,12Z,13aS,14aR,16aS)-5′-cyclopropyl-9′-methoxy-14a-{[(1-methylcyclopropyl)sulfonyl]carbamoyl}-5,16-dioxo-1,1′,2′,5,6,7,8,9,10,11,13a,14,14a,15,16,16a-hexadecahydrospiro[cyclopropa[e]pyrrolo[1,2-a][1,4]diazacyclopentadecine-2,3′-pyrano[2,3-c]quinolin]-6-yl]carbamate]: in assay [1], the IC50 was determined as 0.024 nM. Further, in the assay on HCV genotype 1b replicon, the half-maximal effective concentration (EC50) was determined as 1.72 nM.
For the molecule `COc1ccc2nc(C(F)(F)F)c3c(c2c1)CC[C@]1(C[C@H]2C(=O)N[C@]4(C(=O)NS(=O)(=O)C5(C)CC5)C[C@H]4/C=C\CCCCC[C@H](NC(=O)OC4(C)COC4)C(=O)N2C1)O3` [Example 422, 3-methyloxetan-3-yl [(2R,6S,12Z,13aS,14aR,16aS)-9′-methoxy-14a-{[(1-methylcyclopropyl)sulfonyl]carbamoyl}-5,16-dioxo-5′-(trifluoromethyl)-1,1′,2′,5,6,7,8,9,10,11,13a,14,14a,15,16,16a-hexadecahydrospiro[cyclopropa[e]pyrrolo[1,2-a][1,4]diazacyclopentadecine-2,3′-pyrano[2,3-c]quinolin]-6-yl]carbamate], the half-maximal inhibitory concentration (IC50) in assay [1] (K+ salt) came to 0.008 nM. Further, the EC50 in the assay on HCV genotype 1b replicon (K+ salt) came to 3.14 nM.
As to `Cc1ccc2nc(C(F)(F)F)c3c(c2c1)CC[C@]1(C[C@H]2C(=O)N[C@]4(C(=O)NS(=O)(=O)C5(C)CC5)C[C@H]4/C=C\CCCCC[C@H](NC(=O)OCCCN4CCCCC4)C(=O)N2C1)O3` [Example 423, 3-(piperidin-1-yl)propyl [(2R,6S,12Z,13aS,14aR,16aS)-9′-methyl-14a-{[(1-methylcyclopropyl)sulfonyl]carbamoyl}-5,16-dioxo-5′-(trifluoromethyl)-1,1′,2′,5,6,7,8,9,10,11,13a,14,14a,15,16,16a-hexadecahydrospiro[cyclopropa[e]pyrrolo[1,2-a][1,4]diazacyclopentadecine-2,3′-pyrano[2,3-c]quinolin]-6-yl]carbamate], the IC50 in assay [1] amounted to 0.048 nM. Also, the half-maximal effective concentration (EC50) with HCV genotype 1b replicon was 19 nM.
In the same order, the values of `Cc1ccc2nc(C(F)(F)F)c3c(c2c1)CC[C@]1(C[C@H]2C(=O)N[C@]4(C(=O)NS(=O)(=O)C5(C)CC5)C[C@H]4/C=C\CCCCC[C@H](NC(=O)OCCCN4CCOCC4)C(=O)N2C1)O3` [Example 424, 3-(morpholin-4-yl)propyl [(2R,6S,12Z,13aS,14aR,16aS)-9′-methyl-14a-{[(1-methylcyclopropyl)sulfonyl]carbamoyl}-5,16-dioxo-5′-(trifluoromethyl)-1,1′,2′,5,6,7,8,9,10,11,13a,14,14a,15,16,16a-hexadecahydrospiro[cyclopropa[e]pyrrolo[1,2-a][1,4]diazacyclopentadecine-2,3′-pyrano[2,3-c]quinolin]-6-yl]carbamate] are 0.033 nM and 15.1 nM.
In the same order, the values of `Cc1nc2ccc(OCCN3CCOCC3)cc2c2c1O[C@]1(CC2)C[C@H]2C(=O)N[C@]3(C(=O)NS(=O)(=O)C4(C)CC4)C[C@H]3/C=C\CCCCC[C@H](NC(=O)OCC(C)(C)C)C(=O)N2C1` [Example 425, 2,2-dimethylpropyl {(2R,6S,12Z,13aS,14aR,16aS)-5′-methyl-14a-{[(1-methylcyclopropyl)sulfonyl]carbamoyl}-9′-[2-(morpholin-4-yl)ethoxy]-5,16-dioxo-1,1′,2′,5,6,7,8,9,10,11,13a,14,14a,15,16,16a-hexadecahydrospiro[cyclopropa[e]pyrrolo[1,2-a][1,4]diazacyclopentadecine-2,3′-pyrano[2,3-c]quinolin]-6-yl}carbamate] are 0.024 nM and 3.29 nM.
In the same order, the values of `COc1ccc2nc(C(F)(F)F)c3c(c2c1)[C@@H](F)C[C@]1(C[C@H]2C(=O)N[C@]4(C(=O)NS(=O)(=O)C5(C)CC5)C[C@H]4/C=C\CCCCC[C@H](NC(=O)OC(C)(C)C)C(=O)N2C1)O3` [Example 426, tert-butyl [(l′S,2S,6S,12Z,13aS,14aR,16aS)-1′-fluoro-9′-methoxy-14a-{[(1-methylcyclopropyl)sulfonyl]carbamoyl}-5,16-dioxo-5′-(trifluoromethyl)-1,1′,2′,5,6,7,8,9,10,11,13a,14,14a,15,16,16a-hexadecahydrospiro[cyclopropa[e]pyrrolo[1,2-a][1,4]diazacyclopentadecine-2,3′-pyrano[2,3-c]quinolin]-6-yl]carbamate] are 0.603 nM and 21.4 nM.
Molecule `COc1ccc2nc(C(F)(F)F)c3c(c2c1)[C@H](F)C[C@]1(C[C@H]2C(=O)N[C@]4(C(=O)NS(=O)(=O)C5(C)CC5)C[C@H]4/C=C\CCCCC[C@H](NC(=O)OC(C)(C)C)C(=O)N2C1)O3` [Example 427, tert-butyl [(l′R,2S,6S,12Z,13aS,14aR,16aS)-1′-fluoro-9′-methoxy-14a-{[(1-methylcyclopropyl)sulfonyl]carbamoyl}-5,16-dioxo-5′-(trifluoromethyl)-1,1′,2′,5,6,7,8,9,10,11,13a,14,14a,15,16,16a-hexadecahydrospiro[cyclopropa[e]pyrrolo[1,2-a][1,4]diazacyclopentadecine-2,3′-pyrano[2,3-c]quinolin]-6-yl]carbamate] showed a 50% inhibitory concentration (IC50) in assay [1] of 0.015 nM. The EC50 in the assay on HCV genotype 1b replicon is 1.46 nM.
The matching figures for `COc1ccc2nc(C3CC3)c3c(c2c1)[C@H](F)C[C@]1(C[C@H]2C(=O)N[C@]4(C(=O)NS(=O)(=O)C5(C)CC5)C[C@H]4/C=C\CCCCC[C@H](NC(=O)OC(C)(C)C)C(=O)N2C1)O3` [Example 428, tert-butyl [(l′R,2S,6S,12Z,13aS,14aR,16aS)-5′-cyclopropyl-1′-fluoro-9′-methoxy-14a-{[(1-methylcyclopropyl)sulfonyl]carbamoyl}-5,16-dioxo-1,1′,2′,5,6,7,8,9,10,11,13a,14,14a,15,16,16a-hexadecahydrospiro[cyclopropa[e]pyrrolo[1,2-a][1,4]diazacyclopentadecine-2,3′-pyrano[2,3-c]quinolin]-6-yl]carbamate]: 0.02 nM and 2.21 nM.
